Measurements from patent US12540118B2, “Dendrene amide compound, bactericide and use thereof” (Jiangsu Flag Chemical Industry Co., Ltd., priority 2020, dated 2026).

What was measured:
Erysiphe graminis = Erysiphe graminis potting method; format: in vivo; conditions: Blumeria graminis; 100 mg/L; read-out: Erysiphe graminis control rating
Experimental: The fungicidal activity of the control agents and target compounds are determined. The test and investigation method refers to SOP-SC-1116 Erysiphe graminis potting method in disinfectant rolls written by KANGZHUO and GUBAOGEN in “Standard operation specification for testing biological activity of pesticides”.

succinate dehydrogenase = target: T1, succinate dehydrogenase (Sus scrofa, UniProt A5GZW8+D0VWV4+Q007T0); test: Enzyme activity assay, succinate dehydrogenase (DCIP reduction); format: biochemical, porcine; conditions: read-out: Inhibitors (10 μM, SQR)
T1 construct: isolated from porcine hearts; from tissue; host or cells: porcine heart
How it was run: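 Porcine heart succinate dehydrogenase (2 nM) in 100 mM sodium phosphate pH 7.4, 0.3 mM EDTA, 20 mM sodium succinate and 53 μM DCIP at 23° C with stirring. DCIP reduction followed at 600 nm (ε 21 mM^−1 cm^−1); linear slope minus baseline gives initial rate.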

Sphaerotheca fuliginea = Sphaerotheca fuliginea potting method; format: in vivo; conditions: Podosphaera fuliginea; 100 mg/L; read-out: Sphaerotheca fuliginea control rating
Experimental: The fungicidal activity of the control agents and target compounds are determined. The test and investigation method refers to SOP-SC-1101 sphaerotheca fuliginea potting method in disinfectant rolls written by KANGZHUO and GUBAOGEN in “Standard operation specification for testing biological activity of pesticides”.

T1 sequence (Q0QF01 43-664 partner): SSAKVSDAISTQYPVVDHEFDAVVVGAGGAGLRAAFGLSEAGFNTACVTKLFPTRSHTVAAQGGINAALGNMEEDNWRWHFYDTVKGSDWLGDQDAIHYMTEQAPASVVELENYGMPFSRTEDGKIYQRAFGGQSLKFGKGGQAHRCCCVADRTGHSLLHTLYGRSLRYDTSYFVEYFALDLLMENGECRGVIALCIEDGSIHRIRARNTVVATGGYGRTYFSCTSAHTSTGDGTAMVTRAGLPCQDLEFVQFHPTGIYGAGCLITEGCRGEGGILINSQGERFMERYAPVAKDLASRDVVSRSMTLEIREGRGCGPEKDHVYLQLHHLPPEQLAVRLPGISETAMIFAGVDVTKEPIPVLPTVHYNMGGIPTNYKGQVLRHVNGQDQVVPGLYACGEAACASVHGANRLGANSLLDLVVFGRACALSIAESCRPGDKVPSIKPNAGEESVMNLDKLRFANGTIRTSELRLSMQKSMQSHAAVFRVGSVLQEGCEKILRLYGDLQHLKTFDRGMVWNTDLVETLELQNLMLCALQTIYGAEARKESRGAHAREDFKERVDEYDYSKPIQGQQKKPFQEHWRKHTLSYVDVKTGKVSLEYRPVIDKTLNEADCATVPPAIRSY
T1 sequence (Q007T0 29-280): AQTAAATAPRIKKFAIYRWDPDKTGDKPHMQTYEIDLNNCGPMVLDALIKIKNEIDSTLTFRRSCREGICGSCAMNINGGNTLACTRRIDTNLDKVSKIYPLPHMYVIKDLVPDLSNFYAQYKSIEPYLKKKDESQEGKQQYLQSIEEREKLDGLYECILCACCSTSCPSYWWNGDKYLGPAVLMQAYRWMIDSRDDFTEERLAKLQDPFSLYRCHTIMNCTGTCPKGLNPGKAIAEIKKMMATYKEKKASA
T1 sequence (D0VWV4 30-169): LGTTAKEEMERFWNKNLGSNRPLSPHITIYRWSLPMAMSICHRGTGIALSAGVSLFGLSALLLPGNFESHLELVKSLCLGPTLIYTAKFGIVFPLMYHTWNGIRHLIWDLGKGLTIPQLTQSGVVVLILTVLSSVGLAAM
T1 sequence (A5GZW8 57-159 limits assumed): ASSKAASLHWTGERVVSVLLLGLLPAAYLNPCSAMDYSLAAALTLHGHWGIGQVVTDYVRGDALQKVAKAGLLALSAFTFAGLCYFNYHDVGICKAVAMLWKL

Structure (SMILES) | inhibition at 10 µM (succinate dehydrogenase) [%] | pest or weed control at 100 µg/mL (Erysiphe graminis) [%] | pest or weed control at 100 µg/mL (Sphaerotheca fuliginea) [%]
CC(C(=C(Cl)Cl)c1cccc(Br)c1)N(C(=O)c1c(C(F)F)nn(C)c1F)C1CC1 (stereo not drawn) [Compound 186] | > 90 | 80 to 100 | 80 to 100
CC(C(=C(Cl)Cl)c1ccc(Br)cc1Br)N(C(=O)c1c(C(F)F)nn(C)c1F)C1CC1 (stereo not drawn) [Compound 187] | > 90 | 80 to 100 | 80 to 100
CC(C(=C(Cl)Cl)c1cc(Br)ccc1Br)N(C(=O)c1c(C(F)F)nn(C)c1F)C1CC1 (stereo not drawn) [Compound 188] | > 90 | 80 to 100 | 80 to 100
CC(C(=C(Cl)Cl)c1c(Br)cccc1Br)N(C(=O)c1c(C(F)F)nn(C)c1F)C1CC1 (stereo not drawn) [Compound 189] | > 90 | 80 to 100 | 80 to 100
CC(C(=C(Cl)Cl)c1c(Br)cc(Br)cc1Br)N(C(=O)c1c(C(F)F)nn(C)c1F)C1CC1 (stereo not drawn) [Compound 190] | > 90 | 80 to 100 | 80 to 100
CC(C(=C(Cl)Cl)c1ccc(Br)c(Br)c1)N(C(=O)c1c(C(F)F)nn(C)c1F)C1CC1 (stereo not drawn) [Compound 191] | > 90 | 80 to 100 | 80 to 100
Cc1cccc(C(=C(Cl)Cl)C(C)N(C(=O)c2c(C(F)F)nn(C)c2F)C2CC2)c1 (stereo not drawn) [Compound 192] | > 90 | 80 to 100 | 80 to 100

The next lines start with results.

inhibition at 10 µM (succinate dehydrogenase) [%] | Structure (SMILES) | pest or weed control at 100 µg/mL (Erysiphe graminis) [%] | pest or weed control at 100 µg/mL (Sphaerotheca fuliginea) [%]
> 90 | Cc1ccc(C(=C(Cl)Cl)C(C)N(C(=O)c2c(C(F)F)nn(C)c2F)C2CC2)c(C)c1 (stereo not drawn) [Compound 193] | 80 to 100 | 80 to 100
> 90 | Cc1ccc(C)c(C(=C(Cl)Cl)C(C)N(C(=O)c2c(C(F)F)nn(C)c2F)C2CC2)c1 (stereo not drawn) [Compound 194] | 80 to 100 | 80 to 100
> 90 | Cc1cccc(C)c1C(=C(Cl)Cl)C(C)N(C(=O)c1c(C(F)F)nn(C)c1F)C1CC1 (stereo not drawn) [Compound 195] | 80 to 100 | 80 to 100
> 90 | Cc1cc(C)c(C(=C(Cl)Cl)C(C)N(C(=O)c2c(C(F)F)nn(C)c2F)C2CC2)c(C)c1 (stereo not drawn) [Compound 196] | 80 to 100 | 80 to 100
> 90 | Cc1ccc(C(C)C)cc1C(=C(Cl)Cl)C(C)N(C(=O)c1c(C(F)F)nn(C)c1F)C1CC1 (stereo not drawn) [Compound 197] | 80 to 100 | 80 to 100
> 90 | Cc1ccc(C(C)C)c(C(=C(Cl)Cl)C(C)N(C(=O)c2c(C(F)F)nn(C)c2F)C2CC2)c1 (stereo not drawn) [Compound 198] | 80 to 100 | 80 to 100
> 90 | Cc1ccc(C(C)(C)C)c(C(=C(Cl)Cl)C(C)N(C(=O)c2c(C(F)F)nn(C)c2F)C2CC2)c1 (stereo not drawn) [Compound 199] | 80 to 100 | 80 to 100
> 90 | Cc1ccc(C(C)(C)C)cc1C(=C(Cl)Cl)C(C)N(C(=O)c1c(C(F)F)nn(C)c1F)C1CC1 (stereo not drawn) [Compound 200] | 80 to 100 | 80 to 100
> 90 | Cc1cc(C(C)C)ccc1C(=C(Cl)Cl)C(C)N(C(=O)c1c(C(F)F)nn(C)c1F)C1CC1 (stereo not drawn) [Compound 201] | 80 to 100 | 80 to 100
> 90 | Cc1ccccc1C(=C(Cl)Cl)C(C)N(C(=O)c1c(C(F)F)nn(C)c1F)C1CC1 (stereo not drawn) [Compound 202] | 80 to 100 | 80 to 100
> 90 | Cc1ccc(C(=C(Cl)Cl)C(C)N(C(=O)c2c(C(F)F)nn(C)c2F)C2CC2)cc1 (stereo not drawn) [Compound 203] | 80 to 100 | 80 to 100
